Measurements as given in patent EP2616456B1, “NUCLEAR EXPORT INHIBITORS” (Universitätsmedizin der Johannes Gutenberg-Universität Mainz, priority 2010, dated 2012).
pIC50: −log10 of the molar value. Entries after “also recorded” stand apart in the source; their conditions may differ.

Key:
human CRM1 (Crm1-HA) = human CRM1 (Crm1-HA) (Homo sapiens, UniProt O14980); assay: In vitro pull-down of Crm1-HA with GST-SurvivinNES-GFP beads; assay type: binding; conditions: preincubation 400nM, 30min at 4°C
human CRM1 (Crm1-HA), sequence (O14980 whole entry): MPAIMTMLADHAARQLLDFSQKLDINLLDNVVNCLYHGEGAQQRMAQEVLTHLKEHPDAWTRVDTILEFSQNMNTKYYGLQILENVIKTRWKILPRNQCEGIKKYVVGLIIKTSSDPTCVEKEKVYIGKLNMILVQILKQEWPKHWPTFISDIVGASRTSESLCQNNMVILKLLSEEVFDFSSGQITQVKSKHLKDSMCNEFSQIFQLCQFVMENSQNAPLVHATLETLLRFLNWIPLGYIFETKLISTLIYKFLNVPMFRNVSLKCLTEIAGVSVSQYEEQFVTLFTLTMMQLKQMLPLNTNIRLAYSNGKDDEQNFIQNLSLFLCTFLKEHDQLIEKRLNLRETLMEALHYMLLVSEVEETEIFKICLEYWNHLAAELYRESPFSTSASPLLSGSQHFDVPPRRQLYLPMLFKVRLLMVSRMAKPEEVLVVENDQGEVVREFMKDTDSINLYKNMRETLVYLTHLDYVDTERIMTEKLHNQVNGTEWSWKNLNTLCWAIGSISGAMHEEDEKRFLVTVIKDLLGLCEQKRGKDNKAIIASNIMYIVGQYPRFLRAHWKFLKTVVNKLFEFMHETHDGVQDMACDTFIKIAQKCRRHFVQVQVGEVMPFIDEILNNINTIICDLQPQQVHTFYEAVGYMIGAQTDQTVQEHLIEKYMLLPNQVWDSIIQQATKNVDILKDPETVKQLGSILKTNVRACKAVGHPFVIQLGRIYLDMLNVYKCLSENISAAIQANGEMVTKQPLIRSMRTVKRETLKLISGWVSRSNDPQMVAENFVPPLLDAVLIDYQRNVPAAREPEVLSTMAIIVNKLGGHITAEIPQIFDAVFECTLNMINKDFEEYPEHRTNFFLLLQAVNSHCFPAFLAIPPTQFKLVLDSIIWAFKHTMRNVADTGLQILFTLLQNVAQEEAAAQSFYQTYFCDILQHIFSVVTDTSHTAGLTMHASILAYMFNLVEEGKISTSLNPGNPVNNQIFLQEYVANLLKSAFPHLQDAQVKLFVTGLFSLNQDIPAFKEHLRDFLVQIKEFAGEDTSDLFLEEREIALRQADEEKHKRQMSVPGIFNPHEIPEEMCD
Experimental: The binding of LMB and of compounds C3 and C5 to CRM1 was examined by in vitro pull-down assays as described by Stauber et al., 2006. Briefly, in vitro coupled transcription/translation was performed using the TNT reticulocyte lysate system (Promega, Madison, WI, USA) supplemented with methionine (Promega, Madison, WI, USA) and plasmid pCrm1_HA (1µg), encoding a hemagglutinin epitope-tagged version of human CRM1 (Crm1-HA), as the template. Equal amounts of the Crm1-HA TNT reaction were preincubated with either DMSO (negative control; 0.1%), LMB (400nM, final concentration), C3 (1 mM; final concentration) or C5 (1mM; final concentration) in binding-buffer containing 5mM MgCl2 (AppliChem, Darmstadt, Germany), 2mM GTP (PEQLAB, Erlangen, Germany), 50mM Hepes pH 7.9 (AppliChem, Darmstadt, Germany), 200mM KCI (AppliChem, Darmstadt, Germany), 0.4% Tween 20 (AppliChem, Darmstadt, Germany), supplemented with complete protease inhibitor cocktail (Roche, Mannheim, Germany) for 30min at 4°C. Subsequently, GST-Sepharose beads loaded with 25µg recombinant GST-SurvivinNES-GFP and 5µg GST-RanQ96L were added to each drug-treated TNT reaction. Recombinant GST-SurvivinNES-GFP and GST-RanQ96L were purified from bacteria as described by Stauber et al., 2006. Pull-down was performed for 4h at 4°C in a rotating wheel. Samples were then centrifuged (3500rpm, 1min, 4°C) to recover the GST-SurvivinNES-GFP beads with bound Crm1-HA. Beads were washed three times with binding-buffer (500µl each washing step, 3500rpm, 1min, 4°C). Finally, bound proteins were eluted by adding 25µl 2xSDS-sample buffer (250mM Tris-HCl pH 6.8; 2% w/v SDS, 20% glycerol, 2% β-mercaptoethanol, 0.002% w/v bromophenol blue) and incubating at 95°C for 2min. Samples were separated by SDS-gelelectrophoresis and analyzed by immunoblot analysis as described by Stauber et al., 2006. Crm1-HA was detected with HA specific antibodies (MMS-101R, Covance, New Jersey, USA). GFP served as the loading control and was visualized with GFP specific antibodies (sc-8334, Santa Cruz Biotechnology, Heidelberg, Germany).

Survivin = assay: Nuclear export of Survivin-GFP fusion transiently expressed in HeLa cells; assay type: cell-based; conditions: transient expression, 25µM
Experimental: The activity of compounds to inhibit the export of the oncologically relevant protein Survivin as well as of the HIV-1 Rev protein was analyzed.
Nuclear export of Survivin is crucial for its tumor promoting cytoprotective activity (Engels et al., 2007; Knauer et al., 2007a; Knauer et al., 2007b).

HeLa cells = assay: Cell viability (CellTiter-Glo) and cell death, HeLa; assay type: cell-based; conditions: Homo sapiens; compound concentration reducing HeLa cell viability by 50%
Experimental: To test the anti-cancer activity of the compounds, several cancer cell lines, currently used as models for different epithelial cancers and leukemias, were treated with the indicated inhibitors. […] Every 24h, the cell culture medium was replaced by fresh compound-containing medium. 72h post treatment, cell were analyzed by adding 100µl CellTiter-Glo® assay reagent (Promega). Luminescence was measured with a LuminoskanAscent device (ThermoScientific). Cells treated with a corresponding amount of DMSO only were use as a control. The luminescence (equals cell viability) of said control was set to 100%.
(§1) IC50 value corresponds to compound concentration reducing HeLa cell viability by 50%. Topt is the time point post treatment when maximum nuclear export inhibition was observed by fluorescence microscopy. Table 4: Functional characteristics of nuclear export inhibitors
(§2) It was assessed whether the export inhibitors also affect the viability of non-malignant human cells, precluding their potential (pre)clinical use. 10^3 freshly isolated non-malignant primary human fibroblasts (HTF-8) or HeLa cells/well were seeded and 24h later treated with the indicated compounds (final concentration: 100µM). Every 24h cell culture medium was replaced by freshly prepared compound-containing medium. 72h post treatment the cells were analyzed by adding 100µl CellTiter-Glo® assay reagent, and luminescence measured with a LuminoskanAscent (ThermoScientific). Cells treated with DMSO only were used as a control. The fluorescence measured (equals cell viability) with said control was set to 100%.

HTF-8 = assay: Viability (CellTiter-Glo) and cell death of non-malignant primary fibroblasts HTF-8; assay type: cell-based; conditions: HTF-8 non-malignant primary human fibroblasts, 100µM, 72h
Experimental: as §2, with “10^3 freshly isolated non-malignant primary human fibroblasts (HTF-8) or HeLa cells/well were seeded and 24h later treated with the indicated compounds (final concentration: 100µM).” left out

HIV-1 Rev protein = assay: Nuclear export of HIV-1 Rev-GFP in actinomycin D treated HeLa cells; assay type: cell-based; conditions: 25µM
Excerpt: The HIV-1 Rev protein transports unspliced and incompletely spliced viral RNAs from the nucleus into the cytoplasm (Stauber et al., 1995). As such, Rev's export function is crucial for viral replication and AIDS development (Pavlakis and Stauber, 1998; Stauber et al., 1995).

RevNES-biosensor = RevNES-biosensor translocation (NES-mediated nuclear export) in living HeLa cells, fluorescence microscopy; assay type: cell-based; conditions: for Cellular localization of green fluorescent RevNES-biosensor: HeLa
Experimental: The activity of compounds C3, C5 and C24 to inhibit NES-mediated nuclear export in living cells was analyzed as described in Fetz et al., 2009 using living HeLa (cervix carcinoma), FaDu (head and neck cancer), MDA-MB231 (mammacarcinoma) and SW480 cells (colon cancer) which transiently expressed the RevNES-biosensor. The RevNES-biosensor is a fusion protein composed of (from N to C terminus) the SV40 large T-antigen nuclear localization signal (NLS), glutathion-S-transferase (GST), green fluorescent protein (GFP) and the nuclear export signal (NES) of the HIV-1 (human immunodeficiency virus) Rev protein (RevNES).
The cells of the control were treated with a corresponding amount of DMSO only. The cellular localization of RevNES-biosensor was monitored by fluorescence microscopy. […] Maximum of cellular accumulation was observed after 1h (C24), after 2h (C3) and after 5h (C5), respectively. […] Thus, the inhibitory activity of C3 and C24 (reversible) but not of C5 (irreversible) was reversed after 24h. Table 1: Cellular localization of green fluorescent RevNES-biosensor
Table 3: Cellular localization of green fluorescent RevNES-biosensor
as §1

| Compound | interaction of Crm1-HA with the export substrate GST-SurvivinNES-GFP (human CRM1 (Crm1-HA)) | Localization of Survivin-GFP fusion (nuclear export of Survivin) (Survivin) | pIC50 (HeLa cells) | viability compared to the control (HTF-8) | Localization of HIV-1 Rev-GFP (nuclear export of HIV-1 Rev protein) (HIV-1 Rev protein) | Cellular localization of green fluorescent RevNES-biosensor (RevNES-biosensor; 25µM, T = 24h) | Cellular localization of green fluorescent RevNES-biosensor (RevNES-biosensor; 25µM, at Topt) | Topt at 25µM (RevNES-biosensor; Table 4, 25µM, fluorescence microscopy) | Mode of Inhibition (RevNES-biosensor; reversal of export inhibition after 24h, C5: 5-12h observation) |
| --- | --- | --- | --- | --- | --- | --- | --- | --- | --- |
| CCC(=C/[C@H](C)C/C=C/C(C)=C/[C@@H](C)C(=O)[C@@H](C)[C@H](O)[C@@H](C)C/C(C)=C/C(=O)O)/C=C/[C@@H]1OC(=O)C=C[C@@H]1C [LMB, leptomycin B, reference compound] | prevented the interaction |  |  |  |  |  |  |  |  |
| NC(=O)c1c(NC(NC(=O)c2cccc(F)c2)(C(F)(F)F)C(F)(F)F)sc2c1CCC2 [Compound C24, 2-[[1,1,1,3,3,3-hexafluoro-2-[(3-fluorobenzoyl)amino]propan-2-yl]amino]-5,6-dihydro-4H-cyclopenta[b]thiophene-3-carboxamide] |  | accumulated in the nucleus | 4.51 | do not affect viability | restored the nuclear accumulation | predominantly localized in the cytoplasm | nuclear accumulation; also recorded: nucleus | ∼1h | reversible |
